Laboratory results taken from patent US20040038855A1 (priority 1999, published 2004).
Like-named read-outs stand apart in the source and are kept apart here.

How the values were obtained:
rat MCH1 receptor = target: T1, rat MCH1 receptor (Rattus norvegicus, UniProt P97639); test: Binding affinity (Ki) at the rat MCH1 receptor
T1 construct: expressed in transfected cells
Experimental: For binding assays, pellets of transfected cells are suspended in ice-cold buffer (20 mM Tris.HCl, 5 mM EDTA, pH 7.4) and homogenized by sonication for 7 sec. The cell lysates are centrifuged at 200×g for 5 min at 4° C. The supernatants are then centrifuged at 40,000×g for 20 min at 4° C. The resulting pellets are washed once in the homogenization buffer and suspended in binding buffer (see methods for radioligand binding). Protein concentrations are determined by the method of Bradford (1976) using bovine serum albumin as the standard. Binding assays are usually performed immediately, however it is possible to prepare membranes in batch and store frozen in liquid nitrogen for future use.
Binding is performed at 25° C. for 1 hr. Incubations are terminated by rapid vacuum filtration over GF/C glass fiber filters, presoaked in 5% PEI using 50 mM Tris pH 7.4 containing 0.01% triton X-100 as wash buffer.
A methanolic solution of methyl (4S)-3-({[3-(4-[3-(acetylamino)phenyl]-3,6-dihydro-1(2H)pyridinyl)propyl]amino}carbonyl)-4-(3,4-difluorophenyl)-6-(methoxymethyl)-2-oxo-1,2,3,4-tetrahydro-5-pyrimidinecarboxylate was exposed to tritium gas at 1 atmosphere pressure in the presence of 5% palladium on carbon with stirring overnight to give the tritiated methyl (4S)-3-{[(3-{4-[3-(acetylamino)phenyl]-1-piperidinyl}propyl)amino]carbonyl}-4-(3,4-difluorophenyl)-6-(methoxymethyl)-2-oxo-1,2,3,4-tetrahydro-5-pyrimidinecarboxylate ((+)-isomer) After purification by reverse phase HPLC (Hypersil ODS, 4.6×100 mm, methanol:H2O:Et3N 10:90:1 to 100:0:1 in 15 min at 1.0 mL/min, with radiochemical and UV detection), this product was used as a radioligand in the MCH1 binding assays. The same procedure was carried out with H2 gas in place of ^3H2 to afford the non-radioactive version of Compound 10.

[1] = target: T2, human Dopamine D2 receptor (Homo sapiens, UniProt P14416); test: Binding affinity at the human dopamine D2 receptor; details: Table 3c; read-out: hD2 Ki
T2 construct: purchased BioSignal, Inc. (Montreal, Canada)
Source text: (§1) Other receptors: Cell membranes expressing human dopamine D1, D2, D4 and rat D3 receptors were purchased through BioSignal, Inc. (Montreal, Canada). Binding assays using the histamine H1 receptor; dopamine receptors; and α1A, α1B, and α2 adrenergic receptors may be carried out according to the procedures described in U.S. Pat. No. 5,780,485, the disclosure of which is hereby incorporated by reference in its entirety into this application. Binding assays using the dopamine D5 receptor may be carried out according to the procedures described in U.S. Pat. No. 5,882,855, the disclosure of which is hereby incorporated by reference in its entirety into this application. Binding assays for the human α1D adrenergic receptor may be carried out according to the procedures described in U.S. Pat. No. 6,156,518, the disclosure of which is hereby incorporated by reference in its entirety into this application.

[2] = target: T3, human Alpha-1a Adrenergic receptor (Homo sapiens, UniProt P35348); test: Binding affinity at the human alpha-1A adrenergic receptor; details: Table 3c; read-out: hAlpha-1a Ki
T3 construct: expressed in transfected cells
T3 sequence (P35348 1-466): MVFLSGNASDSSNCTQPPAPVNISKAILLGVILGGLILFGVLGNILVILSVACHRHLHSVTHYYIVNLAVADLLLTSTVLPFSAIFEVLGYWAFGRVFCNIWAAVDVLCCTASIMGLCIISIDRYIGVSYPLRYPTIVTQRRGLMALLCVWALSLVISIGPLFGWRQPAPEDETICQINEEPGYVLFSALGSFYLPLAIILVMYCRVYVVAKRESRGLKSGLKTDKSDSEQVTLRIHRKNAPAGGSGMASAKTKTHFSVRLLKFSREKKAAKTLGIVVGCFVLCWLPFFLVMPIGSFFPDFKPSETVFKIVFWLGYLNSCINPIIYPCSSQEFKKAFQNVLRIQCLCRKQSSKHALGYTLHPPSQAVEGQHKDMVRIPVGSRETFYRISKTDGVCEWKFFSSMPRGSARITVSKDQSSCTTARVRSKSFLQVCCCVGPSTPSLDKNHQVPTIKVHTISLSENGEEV
Source text: as §1

[3] = target: T4, human Histamine H1 receptor (Homo sapiens, UniProt P35367); test: Binding affinity at the human histamine H1 receptor; details: Table 3c; read-out: hH1 Ki
T4 construct: expressed in transfected cells
Source text: as §1

[4] = Examples 38-141, read-out: Ki (nM) rMCH1
[5] = Examples 142-153, read-out: Ki (nM) rMCH1

T1 sequence (P97639 whole entry): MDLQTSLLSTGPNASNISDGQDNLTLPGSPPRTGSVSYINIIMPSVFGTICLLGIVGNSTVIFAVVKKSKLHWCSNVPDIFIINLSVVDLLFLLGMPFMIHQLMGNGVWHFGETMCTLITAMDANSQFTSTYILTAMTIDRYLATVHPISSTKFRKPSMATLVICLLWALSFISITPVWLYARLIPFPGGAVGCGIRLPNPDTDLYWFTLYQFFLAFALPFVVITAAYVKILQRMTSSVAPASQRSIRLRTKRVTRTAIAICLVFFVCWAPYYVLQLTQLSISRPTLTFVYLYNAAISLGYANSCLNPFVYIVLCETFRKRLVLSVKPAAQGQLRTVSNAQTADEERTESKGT
T2 sequence (P14416 whole entry): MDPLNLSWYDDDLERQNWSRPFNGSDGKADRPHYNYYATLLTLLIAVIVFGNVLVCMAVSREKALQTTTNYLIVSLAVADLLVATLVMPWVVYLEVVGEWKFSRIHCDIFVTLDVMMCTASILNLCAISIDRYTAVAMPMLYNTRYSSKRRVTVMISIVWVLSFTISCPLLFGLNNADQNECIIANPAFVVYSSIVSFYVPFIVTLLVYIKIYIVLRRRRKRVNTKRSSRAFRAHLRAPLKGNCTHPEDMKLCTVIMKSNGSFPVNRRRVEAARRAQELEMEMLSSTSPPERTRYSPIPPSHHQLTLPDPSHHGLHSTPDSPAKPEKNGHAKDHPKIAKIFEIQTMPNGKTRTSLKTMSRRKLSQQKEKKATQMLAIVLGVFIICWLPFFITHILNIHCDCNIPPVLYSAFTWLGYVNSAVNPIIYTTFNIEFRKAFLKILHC
T4 sequence (P35367 whole entry): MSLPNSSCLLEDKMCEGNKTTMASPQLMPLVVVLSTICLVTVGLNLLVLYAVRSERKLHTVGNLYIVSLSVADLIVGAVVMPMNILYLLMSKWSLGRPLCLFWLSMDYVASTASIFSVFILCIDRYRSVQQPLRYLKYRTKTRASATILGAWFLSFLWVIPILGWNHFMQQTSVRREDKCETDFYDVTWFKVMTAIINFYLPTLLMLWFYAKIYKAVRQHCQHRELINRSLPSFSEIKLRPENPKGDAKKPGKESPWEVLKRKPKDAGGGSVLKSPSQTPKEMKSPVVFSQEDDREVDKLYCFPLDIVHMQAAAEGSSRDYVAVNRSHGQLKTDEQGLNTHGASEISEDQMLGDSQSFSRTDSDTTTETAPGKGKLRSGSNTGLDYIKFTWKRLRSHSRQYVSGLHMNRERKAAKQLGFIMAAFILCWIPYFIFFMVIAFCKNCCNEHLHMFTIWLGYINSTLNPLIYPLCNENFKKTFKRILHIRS

Row | Structure (SMILES) | Ki (rat MCH1 receptor; [4]) [nM] | Ki (rat MCH1 receptor; Table 3c, read-out: rMCH1 Ki) [nM] | Ki [1] [nM] | Ki [2] [nM] | Ki [3] [nM] | Ki (rat MCH1 receptor; [5]) [nM]
1 | Cc1ccc(C(=O)CCCN2CCC(c3cccc(NC(=O)C4CCCCC4)c3)CC2)cc1C [Example 59] | 768 | 768 |  |  |  | 
2 | Cc1ccc(C(=O)CCCN2CCC(c3cccc(NC(=O)Cc4ccccc4)c3)CC2)cc1C [Example 60] | 357 | 357 |  |  |  | 
3 | COCC(=O)Nc1cccc(C2CCN(CCCC(=O)c3ccc(C)c(C)c3)CC2)c1 [Example 62] | 274 | 274 |  |  |  | 
4 | Cc1ccc(C(=O)CCCN2CCC(c3cccc(NS(C)(=O)=O)c3)CC2)cc1C [Example 63] | 1000 | 1000 |  |  |  | 
5 | CCS(=O)(=O)Nc1cccc(C2CCN(CCCC(=O)c3ccc(C)c(C)c3)CC2)c1 [Example 64] | 627 | 627 |  |  |  | 
6 | CC(=O)Nc1cccc(C2CCN(CCCC(=O)c3ccccc3)CC2)c1 [Example 73] | 342 | 342 |  |  |  | 
7 | O=C(Cc1ccccc1)Nc1cccc(C2CCN(CCCC(=O)c3ccccc3)CC2)c1 [Example 75] | 506 | 506 |  |  |  | 
8 | COc1ccc(C(=O)CCCN2CCC(c3cccc(NC(C)=O)c3)CC2)c(OC)c1 [Example 77] | 630 | 630 |  |  |  | 
9 | COc1ccc(C(=O)CCCN2CCC(c3cccc(NC(=O)Cc4ccccc4)c3)CC2)c(OC)c1 [Example 79] | 1040 | 1040 |  |  |  | 
10 | CC(=O)Nc1cccc(C2CCN(CCCC(=O)c3ccc(Oc4ccccc4)cc3)CC2)c1 [Example 81] | 463 | 463 |  |  |  | 
11 | CC(C)C(=O)Nc1cccc(C2CCN(CCCC(=O)c3ccc(Oc4ccccc4)cc3)CC2)c1 [Example 82] | 192 | 192 | 1980 | 516 |  | 
12 | CN(C)S(=O)(=O)Nc1cccc(C2CCN(CCCC(=O)c3ccc(Cl)cc3)CC2)c1 [Example 84] | 511 | 511 |  |  |  | 
13 | CC(=O)Nc1cccc(C2CCN(CCCC(=O)c3ccc(C)cc3)CC2)c1 [Example 87] | 362 | 362 |  |  |  | 
14 | Cc1ccc(C(=O)CCCN2CCC(c3cccc(NS(=O)(=O)C(C)C)c3)CC2)cc1C [Example 89] | 615 | 615 |  |  |  | 
15 | CC(C)C(=O)Nc1cccc(C2CCN(CCCN3C(=O)c4ccccc4C3=O)CC2)c1 [Example 97] | 946 | 946 |  |  |  | 
16 | COc1cccc(CN2CCC(c3cccc(NC(=O)C(C)C)c3)CC2)c1 [Example 102] | 187 | 187 |  |  |  | 
17 | CC(C)C(=O)Nc1cccc(C2CCN(CC[C@H](Oc3cccc4ccccc34)c3ccccc3)CC2)c1 [Example 137] | 377 | 377 |  |  |  | 
18 | CC(C)C(=O)Nc1cccc(C2CCN(CC[C@@H](c3ccccc3)N3C(=O)c4ccccc4C3=O)CC2)c1 [Example 138] | 11.2 | 11.2 |  |  |  | 
19 | CC(C)C(=O)Nc1cccc(C2CCN(CC[C@H](Oc3ccc(Oc4ccccc4)cc3)c3ccccc3)CC2)c1 [Example 139] | 48.1 | 48.1 |  |  |  | 
20 | CC(C)C(=O)Nc1cccc(C2CCN(CCCc3c(-c4ccccc4)n(-c4ccccc4)c4ccccc34)CC2)c1 [Example 146] |  |  |  |  |  | 3

Now from value to compound:

Row | Ki (rat MCH1 receptor; [4]) [nM] | Ki (rat MCH1 receptor; Table 3c, read-out: rMCH1 Ki) [nM] | Ki [1] [nM] | Ki [2] [nM] | Ki [3] [nM] | Ki (rat MCH1 receptor; [5]) [nM] | Structure (SMILES)
21 | 1.34 | 1.34 | 2370 | 23.8 | 379 |  | COCC1=C(C(=O)OC)[C@H](c2ccc(F)c(F)c2)N(C(=O)NCCCN2CCC(c3cccc(N)c3)CC2)C(=O)N1 [Example 38, METHYL (4S)-3-[({3-[4-(3-AMINOPHENYL)-1-PIPERIDINYL]PROPYL}AMINO)CARBONYL]-4-(3,4-DIFLUOROPHENYL)-6-(METHOXYMETHYL)-2-OXO-1,2,3,4-TETRAHYDRO-5-PYRIMIDINECARBOXYLATE]
22 | 225 | 225 |  |  |  |  | COCC1=C(C(=O)NCCCN2CCC(c3cccc(NC(=O)CC(C)(C)C)c3)CC2)[C@@H](c2ccc(F)c(F)c2)NC(=O)N1 [Example 49]
23 | 204 | 204 |  |  |  |  | CC(=O)Nc1cccc(C2CCN(CCCNC(=O)N3C(=O)NC4=C(C(=O)OC4)C3c3ccc4nonc4c3)CC2)c1 (centres unmarked) [Example 55]
24 | 197 | 197 |  |  |  |  | O=C(CCCN1CCC(c2cccc(NC(=O)C3CCCCC3)c2)CC1)c1ccc(Cl)cc1 [Example 67]
25 | 11.9 | 11.9 |  | 61 |  |  | COc1cccc(CC(=O)Nc2cccc(C3CCN(CCCC(=O)c4ccc(Cl)cc4)CC3)c2)c1 [Example 69]
26 | 167 | 167 |  |  |  |  | COCC(=O)Nc1cccc(C2CCN(CCCC(=O)c3ccc(Cl)cc3)CC2)c1 [Example 70]
27 | 720 | 720 |  |  |  |  | CS(=O)(=O)Nc1cccc(C2CCN(CCCC(=O)c3ccc(Cl)cc3)CC2)c1 [Example 71]
28 | 272 | 272 |  |  |  |  | CCS(=O)(=O)Nc1cccc(C2CCN(CCCC(=O)c3ccc(Cl)cc3)CC2)c1 [Example 72]
29 | 29.5 | 29.5 | 782 | 115 |  |  | CC(C)C(=O)Nc1cccc(C2CCN(CCCC(=O)c3ccccc3)CC2)c1 [Example 74]
30 | 21 | 21 | 470 | 41.3 |  |  | COc1cccc(CC(=O)Nc2cccc(C3CCN(CCCC(=O)c4ccccc4)CC3)c2)c1 [Example 76]
31 | 67 | 67 | 1250 | 127 |  |  | COc1cccc(CC(=O)Nc2cccc(C3CCN(CCCC(=O)c4ccc(OC)cc4OC)CC3)c2)c1 [Example 80]
32 | 91 | 91 | 503 | 130 |  |  | COc1cccc(CC(=O)Nc2cccc(C3CCN(CCCC(=O)c4ccc(Oc5ccccc5)cc4)CC3)c2)c1 [Example 83]
33 | 654 | 654 |  |  |  |  | CC(=O)Nc1cccc(C2CCN(CCCC(=O)c3cccs3)CC2)c1 [Example 85]
34 | 382 | 382 |  |  |  |  | CC(=O)Nc1cccc(C2CCN(CCCC(=O)c3ccc(C(C)C)cc3)CC2)c1 [Example 86]
35 | 160 | 160 |  |  |  |  | CC(=O)Nc1cccc(C2CCN(CCCC(=O)c3ccc(Br)cc3)CC2)c1 [Example 88]
36 | 651 | 651 |  |  |  |  | CC(C)S(=O)(=O)Nc1cccc(C2CCN(CCCC(=O)c3ccc(Oc4ccccc4)cc3)CC2)c1 [Example 90]
37 | 118 | 118 |  |  |  |  | CC(C)C(=O)Nc1cccc(C2CCN(CC[C@H](O)c3ccccc3)CC2)c1 [Example 98]
38 | 22.2 | 22.2 | 37.6 | 1310 |  |  | CC(C)C(=O)Nc1cccc(C2CCN(CC[C@H](Oc3ccc(-c4ccccc4)cc3)c3ccccc3)CC2)c1 [Example 134]
39 | 121 | 121 |  |  |  |  | COc1ccc(O[C@H](CCN2CCC(c3ccc(NC(=O)C(C)C)cc3)CC2)c2ccccc2)cc1OC [Example 140]
40 |  |  |  |  |  | 20.6 | CC(C)C(=O)Nc1cccc(C2CCN(Cc3c[nH]c4cc(Cl)ccc34)CC2)c1 [Example 142]
41 |  |  |  |  |  | 14.9 | Cc1ccc(-n2cc(CN3CCC(c4cccc(NC(=O)C(C)C)c4)CC3)c3ccccc32)cc1 [Example 143]
42 |  |  |  |  |  | 16 | CCC(=O)N[C@@H](CCN1CCC(c2cccc(NC(=O)C(C)C)c2)CC1)c1ccccc1 [Example 144]
43 |  |  |  |  |  | 3 | CC(C)C(=O)Nc1cccc(C2CCN(CC[C@H](NC(=O)Cc3ccc(F)cc3)c3ccccc3)CC2)c1 [Example 145]
44 |  |  |  |  |  | 5.2 | CC(C)C(=O)Nc1cccc(C2CCN(Cc3ccc(Oc4ccc(Cl)cc4)cc3)CC2)c1 [Example 150]
